According to US12540128B2, “Substituted pyridazinones as herbicides” (SYNGENTA CROP PROTECTION AG, priority 2019, dated 2026):

Key:
Type in all cases: in vivo
Conditions in all cases: 250 g/ha, after 13 days
Setaria faberi (SETFA) [1] = experiment: B3 Pre-Emergence Efficacy Test 1
Method: (§1) Seeds of a variety of test species were sown in standard soil in pots: Solanum nigrum (SOLNI), Amaranthus retoflexus (AMARE), Setaria faberi (SETFA), Echinochloa crus-galli (ECHCG), Ipomoea hederacea (IPOHE), Lolium perenne (LOLPE). After cultivation for one day (pre-emergence) under controlled conditions in a glasshouse (at 24/16° C., day/night; 14 hours light; 65% humidity), the plants were sprayed with an aqueous spray solution derived from the formulation of the technical active ingredient in acetone/water (50:50) solution containing 0.5% Tween 20 (polyoxyethelyene sorbitan monolaurate, CAS RN 9005-64-5). Compounds are applied at 250 g/ha. The test plants were then grown in a glasshouse under controlled conditions (at 24/16° C., day/night; 14 hours light; 65% humidity) and watered twice daily. After 13 days, the test is evaluated for the percentage damage caused to the plant. The biological activities are assessed on a five point scale (5=80-100%; 4=60-79%; 3=40-59%; 2=20-39%; 1=0-19%). A blank value in the table is indicative that the compound was not tested on that species.

[2] = system: Echinochloa crus-galli (ECHCG); experiment: B3 Pre-Emergence Efficacy Test 1
Method: as §1

[3] = system: Ipomoea hederacea (IPOHE); experiment: B3 Pre-Emergence Efficacy Test 1
Method: as §1

Lolium perenne (LOLPE) [4] = experiment: B3 Pre-Emergence Efficacy Test 1
Method: as §1

Solanum nigrum (SOLNI) [5] = experiment: B3 Pre-Emergence Efficacy Test 1
Method: as §1

[6] = system: Amaranthus retoflexus (AMARE); experiment: B3 Pre-Emergence Efficacy Test 1
Method: as §1

Setaria faberi (SETFA) [7] = experiment: B1 Post-Emergence Efficacy Test 1
Method: (§2) Seeds of a variety of test species are sown in standard soil in pots:— Solanum nigrum (SOLNI), Amaranthus retoflexus (AMARE), Setaria faberi (SETFA), Echinochloa crus-galli (ECHCG), Ipomoea hederacea (IPOHE), Lolium perenne (LOLPE). After 8 days cultivation (post-emergence) under controlled conditions in a glasshouse (at 24/16° C., day/night; 14 hours light; 65% humidity), the plants are sprayed with an aqueous spray solution derived from the formulation of the technical active ingredient in acetone/water (50:50) solution containing 0.5% Tween 20 (polyoxyethylene sorbitan monolaurate, CAS RN 9005-64-5). Compounds are applied at 250 g/ha. The test plants are then grown in a glasshouse under controlled conditions in a glasshouse (at 24/16° C., day/night; 14 hours light; 65% humidity) and watered twice daily. After 13 days, the test is evaluated for the percentage damage caused to the plant. The biological activities are assessed on a five point scale (5=80-100%; 4=60-79%; 3=40-59%; 2=20-39%; 1=0-19%). A blank value in the table is indicative that the compound was not tested on that species.

[8] = system: Echinochloa crus-galli (ECHCG); experiment: B1 Post-Emergence Efficacy Test 1
Method: as §2

[9] = system: Ipomoea hederacea (IPOHE); experiment: B1 Post-Emergence Efficacy Test 1
Method: as §2

Lolium perenne (LOLPE) [10] = experiment: B1 Post-Emergence Efficacy Test 1
Method: as §2

Solanum nigrum (SOLNI) [11] = experiment: B1 Post-Emergence Efficacy Test 1
Method: as §2

[12] = system: Amaranthus retoflexus (AMARE); experiment: B1 Post-Emergence Efficacy Test 1
Method: as §2

Setaria faberi (SETFA) [13] = experiment: B2 Post-Emergence Efficacy Test 2
[14] = system: Abutilon theophrasti (ABUTH); experiment: B2 Post-Emergence Efficacy Test 2
[15] = system: Ipomoea hederacea (IPOHE); experiment: B2 Post-Emergence Efficacy Test 2
[16] = system: Amaranthus retoflexus (AMARE); experiment: B2 Post-Emergence Efficacy Test 2
Zea Mays (ZEAMX) [17] = experiment: B2 Post-Emergence Efficacy Test 2
Setaria faberi (SETFA) [18] = experiment: B4 Pre-Emergence Efficacy Test 2
[19] = system: Abutilon theophrasti (ABUTH); experiment: B4 Pre-Emergence Efficacy Test 2
[20] = system: Echinochloa crus-galli (ECHCG); experiment: B4 Pre-Emergence Efficacy Test 2
[21] = system: Ipomoea hederacea (IPOHE); experiment: B4 Pre-Emergence Efficacy Test 2
[22] = system: Amaranthus retoflexus (AMARE); experiment: B4 Pre-Emergence Efficacy Test 2
Zea Mays (ZEAMX) [23] = experiment: B4 Pre-Emergence Efficacy Test 2
[24] = system: Echinochloa crus-galli (ECHCG); experiment: B2 Post-Emergence Efficacy Test 2

Row | Structure (SMILES) | percentage damage caused to the plant, five point scale, SETFA (Setaria faberi (SETFA) [1]) | percentage damage caused to the plant, five point scale, ECHCG [2] | percentage damage caused to the plant, five point scale, IPOHE [3] | percentage damage caused to the plant, five point scale, LOLPE (Lolium perenne (LOLPE) [4]) | percentage damage caused to the plant, five point scale, SOLNI (Solanum nigrum (SOLNI) [5]) | percentage damage caused to the plant, five point scale, AMARE [6] | percentage damage caused to the plant, five point scale, SETFA (Setaria faberi (SETFA) [7]) | percentage damage caused to the plant, five point scale, ECHCG [8] | percentage damage caused to the plant, five point scale, IPOHE [9] | percentage damage caused to the plant, five point scale, LOLPE (Lolium perenne (LOLPE) [10]) | percentage damage caused to the plant, five point scale, SOLNI (Solanum nigrum (SOLNI) [11]) | percentage damage caused to the plant, five point scale, AMARE [12] | percentage damage caused to the plant, five point scale, SETFA (Setaria faberi (SETFA) [13]) | percentage damage caused to the plant, five point scale, ABUTH [14] | percentage damage caused to the plant, five point scale, IPOHE [15] | percentage damage caused to the plant, five point scale, AMARE [16] | percentage damage caused to the plant, five point scale, ZEAMX (Zea Mays (ZEAMX) [17]) | percentage damage caused to the plant, five point scale, SETFA (Setaria faberi (SETFA) [18]) | percentage damage caused to the plant, five point scale, ABUTH [19] | percentage damage caused to the plant, five point scale, ECHCG [20] | further results
1 | Cc1nn(C)c(=O)c(-c2c(F)ccc(Cl)c2CCc2ccc3c(c2)CCCN3)c1O [Compound 1.019] | 4 (4=60-79%) | 1 (1=0-19%) | 1 (1=0-19%) | 3 (3=40-59%) | 5 (5=80-100%) | 5 (5=80-100%) | 5 (5=80-100%) | 3 (3=40-59%) | 5 (5=80-100%) | 5 (5=80-100%) | 5 (5=80-100%) | 4 (4=60-79%) |  |  |  |  |  |  |  |  | 
2 | Cc1nn(C)c(=O)c(-c2c(F)ccc(Cl)c2CCc2cc(C(F)(F)F)nc3ccccc23)c1O [Compound 1.027] | 1 (1=0-19%) | 3 (3=40-59%) | 3 (3=40-59%) | 3 (3=40-59%) | 4 (4=60-79%) | 1 (1=0-19%) | 4 (4=60-79%) | 4 (4=60-79%) | 5 (5=80-100%) | 4 (4=60-79%) |  | 2 (2=20-39%) |  |  |  |  |  |  |  |  | 
3 | Cc1nn(C)c(=O)c(-c2c(F)ccc(Cl)c2CCc2ccc3c(c2)CC(=O)N3)c1O [Compound 1.357] |  |  |  |  |  |  | 5 (5=80-100%) | 4 (4=60-79%) | 5 (5=80-100%) | 5 (5=80-100%) | 5 (5=80-100%) | 5 (5=80-100%) | 4 (4=60-79%) | 4 (4=60-79%) | 4 (4=60-79%) | 2 (2=20-39%) | 5 (5=80-100%) | 4 (4=60-79%) | 4 (4=60-79%) | 4 (4=60-79%) | percentage damage caused to the plant, five point scale, IPOHE [21]: 3 (3=40-59%); percentage damage caused to the plant, five point scale, AMARE [22]: 4 (4=60-79%); percentage damage caused to the plant, five point scale, ZEAMX (Zea Mays (ZEAMX) [23]): 1 (1=0-19%)
4 | Cc1ccc2cc(/C=C/c3c(Cl)ccc(F)c3-c3c(O)c(C)nn(C)c3=O)ccc2n1 [Compound 2.034, 4-[3-chloro-6-fluoro-2-[(E)-2-(2-methyl-6-quinolyl)vinyl]phenyl]-5-hydroxy-2,6-dimethyl-pyridazin-3-one] | 1 (1=0-19%) | 1 (1=0-19%) | 0 | 1 (1=0-19%) | 2 (2=20-39%) | 1 (1=0-19%) | 2 (2=20-39%) |  | 3 (3=40-59%) | 2 (2=20-39%) | 5 (5=80-100%) | 1 (1=0-19%) |  |  |  |  |  |  |  |  | 
5 | Cc1nn(C)c(=O)c(-c2c(F)ccc(Cl)c2/C=C/c2cn3ccnc3cn2)c1O [Compound 2.363] |  |  |  |  |  |  |  |  |  |  |  |  | 0 | 0 | 2 (2=20-39%) | 1 (1=0-19%) | 0 | 4 (4=60-79%) | 5 (5=80-100%) | 5 (5=80-100%) | percentage damage caused to the plant, five point scale, ECHCG [24]: 0; percentage damage caused to the plant, five point scale, IPOHE [21]: 5 (5=80-100%); percentage damage caused to the plant, five point scale, AMARE [22]: 5 (5=80-100%); percentage damage caused to the plant, five point scale, ZEAMX (Zea Mays (ZEAMX) [23]): 2 (2=20-39%)
6 | Cc1ccc2cc(/C=C/c3c(Cl)ccc(F)c3-c3c(OC(=O)C(C)C)c(C)nn(C)c3=O)ccc2n1 [Compound 4.034, [5-[3-chloro-6-fluoro-2-[(E)-2-(2-methyl-6-quinolyl)vinyl]phenyl]-1,3-dimethyl-6-oxo-pyridazin-4-yl] 2-methylpropanoate] | 0 | 0 | 0 | 0 | 1 (1=0-19%) | 0 | 2 (2=20-39%) |  | 3 (3=40-59%) | 1 (1=0-19%) | 5 (5=80-100%) | 1 (1=0-19%) |  |  |  |  |  |  |  |  | 
